We go through two substances from paper PMC7281206, “Cysteine Cathepsins Inhibition Affects Their Expression and Human Renal Cancer Cell Phenotype” (Cancers, 2020).

*: point of attachment. CH2F = FC*

In one assay the test system is LAMP-1 in A498 cells. Kind of assay: LAMP-1 protein expression (western blot, confocal microscopy), A498. It counts as cell-based, human. The following applies: 20 μM. As to the method: Figure 7 Effect of the peptides on LAMP-1 protein expression: (a) Western blotting analysis of LAMP-1 after treatment with PLVE and VLPE (20 μM) for 24, 48, and 72 h in 769-P cells. (b) Confocal microscopy evaluation of LAMP-1 expression after 48 and 72 h of treatment with PLVE and VLPE (20 μM) in 769-P cells. (c) Western blotting analysis of LAMP-1 after treatment with PLVE and VLPE (20 μM) for 24, 48, and 72 h in A498 cells. (d) Confocal microscopy evaluation of LAMP-1 expression after 48 and 72 h of treatment with PLVE and VLPE (20 μM) in A498 cells. Data are represented as mean ± SD of at least three replicates. Significance was calculated through one-way ANOVA followed by Dunnet’s test. * = p < 0.05, ** = p < 0.01, *** = p < 0.001. Cells were seeded in RPMI containing 10% FBS and cultured for 24 h. Next, 30 µM of inhibitors were added to the culture medium and incubated for 24, 48, and 72 h. Control cells were treated with 0.01% DMSO. At all time points the samples were lysed in 50 mM Tri-HCl (pH 8.0), 100 mM NaCl, 0.5% NP-40, 1% Triton X-100, 1× protease inhibitor cocktail (ThermoFisher, Waltham, MA, USA). The 50 µg of protein lysates were separated by electrophoresis on a 12% SDS-PAGE gel and transferred to the PFDF membranes. The expression of cysteine Cts, LAMP-1, E-cadherin, and SNAIL1 were identified by a reaction with specific primary antibodies (CtsB-Ab190077, Abcam, UK; CtsL-Ab95154, Abcam, UK; CtsW Ab191083; LAMP-1- Ab24170, Abcam, UK; SNAIL1 Ab216347, Abcam, UK and e-cadherin-612131, BD Sciences Franklin Lakes, NJ, USA) which were resuspended in 5% non-fat milk in PBST (all Cts 1:3000, LAMP-1, SNAIL1 and E-cadherin 1:1000) and incubated O/N. The next day, the membranes were washed three times with PBST and incubated for 1 h with secondary antibodies (P-GAR Iss (Goat pAb to rabbit IgG (HRP), Abcam, UK or Rabbit Ab to mouse, Abcam, UK; both 1:5000) in 5% non-fat milk in PBST. After an additional wash (three times with PBS), reactive bands were detected by chemiluminescence (Bio-Rad, Irvine, CA, USA). As a loading control, the membranes were incubated with a polyclonal anti-tubulin antibody (1:5000; Ab52866, Abcam, UK) identically. The cells were treated for 48 and 72 h, then were fixed in 4% PFA/PBS for 15 min and permeabilized in 0.25% Triton®X-100 for 10 min. After blocking the non-specific sites in 2% BSA/PBS-T, the immunofluorescence was performed overnight with primary antibody anti-LAMP-1 (1:100, Abcam, Eugene, OR, USA) incubation, followed by incubation with the appropriate fluorophore-labeled secondary antibody Donkey anti-Rabbit IgG (H+L) ReadyProbes™, Alexa Fluor 488 (1:500; ThermoFisher, USA). […]

In another assay the test system is E-cadherin in A498 cells. In words: E-cadherin protein expression (western blot), A498. It counts as cell-based, human. Particulars: first 48 h. As to the method: These properties could be the result of the modulation of the effectors controlling EMT, as previously shown in other tumor models. To test this hypothesis, the cells were treated with the inhibitors for 24, 48, and 72 h by changing the media every day, and they were tested for E-cadherin and SNAIL1 expression (Figure 6; detail information of western blots can be seen in Supplementary Figure S7). Figure 6 Effects of the peptides on E-cadherin and SNAIL1 protein expression: (a,b) protein expression of E-cadherin and SNAIL1 in 769-P and (c,d) A498 cells after 24, 48, and 72 h of treatment with the peptides. Data are represented as mean ± SD of at least three replicates. Significance was calculated through one-way ANOVA, followed by Dunnet’s test. Cells were seeded in RPMI containing 10% FBS and cultured for 24 h. Next, 30 µM of inhibitors were added to the culture medium and incubated for 24, 48, and 72 h. Control cells were treated with 0.01% DMSO. At all time points the samples were lysed in 50 mM Tri-HCl (pH 8.0), 100 mM NaCl, 0.5% NP-40, 1% Triton X-100, 1× protease inhibitor cocktail (ThermoFisher, Waltham, MA, USA). The 50 µg of protein lysates were separated by electrophoresis on a 12% SDS-PAGE gel and transferred to the PFDF membranes. […] After an additional wash (three times with PBS), reactive bands were detected by chemiluminescence (Bio-Rad, Irvine, CA, USA). […]
(In western blotting, separated proteins are transferred to a membrane and probed.)

As for Ac-VLPE-CH2F [Ac-VLPE-FMK], the LAMP-1 protein expression entry in the assay with LAMP-1 in A498 cells (72 h) is “substantial recovery at 72 h, reaching values slightly higher than CTRL levels”; in the assay on LAMP-1 in A498 cells (first 48 h), “significantly affected during the first 48 h”. Moreover, the E-cadherin protein expression entry in the assay on E-cadherin in A498 cells is “increased the protein expression of E-cadherin in the first 48 h in both the cell lines”.
For Ac-PLVE-CH2F [Ac-PLVE-FMK], the LAMP-1 protein expression result is “substantial recovery at 72 h, reaching values slightly higher than CTRL levels” with LAMP-1 in A498 cells (72 h) and “significantly affected during the first 48 h” with LAMP-1 in A498 cells (first 48 h). The E-cadherin protein expression result in the assay on E-cadherin in A498 cells is “increased the protein expression of E-cadherin in the first 48 h in both the cell lines”.
